Counter-ions that a name gives are not always drawn. Like-named read-outs stand apart in the source and are kept apart here.
Legend:
Format in all cases: biochemical
[1] = biological target: T1, recombinant PRL-3 (Homo sapiens, UniProt O75365); test: In vitro phosphatase assay (DiFMUP hydrolysis), PRL-3; also: test concentration or dose not given here
T1 construct: 6xHis (N, cleaved yes); made in house; host or cells: E. coli One Shot BL21 Star

[2] = biological target: T2, recombinant PRL-2 (Homo sapiens, UniProt Q12974); test: In vitro phosphatase assay (DiFMUP hydrolysis), PRL-2;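 also: PRL-2 activity read as DiFMUP hydrolysis after 20 min at room temperature with drug, enzyme first pre-reduced at 4 °C for 20 min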
T2 construct: 6xHis (N, cleaved yes); made in house; host or cells: E. coli One Shot BL21 Star
T2 sequence (Q12974 1-167): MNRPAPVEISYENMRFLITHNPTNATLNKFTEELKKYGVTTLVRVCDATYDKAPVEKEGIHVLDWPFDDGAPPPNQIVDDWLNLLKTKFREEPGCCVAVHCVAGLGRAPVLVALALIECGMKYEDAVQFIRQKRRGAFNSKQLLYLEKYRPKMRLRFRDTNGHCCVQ

[3] = biological target: T3, recombinant PRL-1 (Homo sapiens, UniProt Q93096); test: In vitro phosphatase assay (DiFMUP hydrolysis), PRL-1; also: test concentration or dose not given here
T3 construct: 6xHis (N, cleaved yes); made in house; host or cells: E. coli One Shot BL21 Star
T3 sequence (Q93096 1-173): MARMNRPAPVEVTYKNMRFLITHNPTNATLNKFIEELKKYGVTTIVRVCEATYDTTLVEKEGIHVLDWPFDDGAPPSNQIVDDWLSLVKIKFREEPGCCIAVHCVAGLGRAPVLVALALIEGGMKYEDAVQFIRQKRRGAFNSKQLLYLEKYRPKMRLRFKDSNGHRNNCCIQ

[4] = FDA-approved drug screen, compared to DMSO
[5] = FDA-approved drug screen, activity compared to DMSO

T1 sequence (O75365 whole entry): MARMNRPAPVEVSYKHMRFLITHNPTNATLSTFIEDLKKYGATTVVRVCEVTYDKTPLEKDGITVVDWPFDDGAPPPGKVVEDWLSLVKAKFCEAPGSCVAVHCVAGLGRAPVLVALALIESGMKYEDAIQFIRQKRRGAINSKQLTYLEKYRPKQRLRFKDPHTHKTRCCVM

Compound	% Phosphatase Activity (compared to DMSO) PRL-3 [1, 4]	% Phosphatase Activity (compared to DMSO) PRL-2 [2, 4]	% Phosphatase Activity (compared to DMSO) PRL-1 [3, 4]	other results
NCCCNCCSP(=O)(O)O [Amifostine]	114%	108%	110%	
CC1COc2c(N3CCN(C)CC3)c(F)cc3c(=O)c(C(=O)O)cn1c23 (stereo not drawn) [Ofloxacin]	134%	271%	301%	
CN(C)CCC(c1ccccc1)c1ccccn1 (stereo not drawn) [Pheniramine Maleate]	70%	104%	98%	
CC(=O)NS(=O)(=O)c1ccc(NC(=O)c2ccccc2C(=O)O)cc1 [Phthalylsulfacetamide]	101%	120%	104%	
COc1ncc(-c2ccc3nccc(-c4ccnnc4)c3c2)cc1NS(=O)(=O)c1ccc(F)cc1F [GSK2126458 (GSK458)]	88%	85%	94%	
O=C(O)CSc1nnc(Br)n1-c1ccc(C2CC2)c2ccccc12 [Lesinurad]	85%	102%	90%	
CCn1cc(C(=O)O)c(=O)c2ccc(C)nc21 [Nalidixic acid]	100%	122%	112%	
CNC1CCCN(c2c(F)cc3c(=O)c(C(=O)O)cn(C4CC4)c3c2OC)C1 (stereo not drawn) [Balofloxacin]	123%	411%	282%	
Tyloxapol				% Phosphatase Activity (compared to DMSO) PRL-3 [1, 5]: 90%; % Phosphatase Activity (compared to DMSO) PRL-2 [2, 5]: 83%; % Phosphatase Activity (compared to DMSO) PRL-1 [3, 5]: 89%
C[C@]12CC[C@@H]3c4ccc(O)cc4CC[C@H]3[C@@H]1CCC2=O [Estrone]	76%	87%	107%	
CCCCNc1ccc(C(=O)OCCN(C)C)cc1 [Tetracaine HCl]				% Phosphatase Activity (compared to DMSO) PRL-3 [1, 5]: 88%; % Phosphatase Activity (compared to DMSO) PRL-2 [2, 5]: 116%; % Phosphatase Activity (compared to DMSO) PRL-1 [3, 5]: 99%
CCN(CC)C(=O)c1cccc(C)c1 [DEET]	85%	77%	95%	
CN(C)CCOC(C)(c1ccccc1)c1ccccn1 (stereo not drawn) [Doxylamine Succinate]	71%	83%	91%	
COc1ccc(C[C@H](N)C(=O)N[C@H]2[C@@H](O)[C@H](n3cnc4c(N(C)C)ncnc43)O[C@@H]2CO)cc1.Cl.Cl [Puromycin 2HCl]	113%	101%	106%	
O=C1C2CC3CC1CC(O)(C3)C2 [Idramantone]	86%	113%	105%	
CCN(CC)CCOC(=O)c1ccc(N)cc1 [Procaine]	80%	94%	102%	
NCC1(CC(=O)O)CCCCC1 [Gabapentin]	87%	92%	105%	
CC(C)(C(=O)O)c1ccc(C(O)CCCN2CCC(C(O)(c3ccccc3)c3ccccc3)CC2)cc1 (stereo not drawn) [Fexofenadine HCl]				% Phosphatase Activity (compared to DMSO) PRL-3 [1]: 89%; % Phosphatase Activity (compared to DMSO) PRL-2 [2]: 92%; % Phosphatase Activity (compared to DMSO) PRL-1 [3]: 109%
Oc1ccc(Cl)c2cccnc12 [Cloxiquine]	90%	100%	108%	

Reference: PMC8119466, “A screen of FDA-approved drugs identifies inhibitors of protein tyrosine phosphatase 4A3 (PTP4A3 or PRL-3)” (Scientific Reports, 2021)
